# Assay results: patent US20190038542A1, “MOISTURIZING PERSONAL CARE COMPOSITIONS COMPRISING MONODISPERSE PHYTOGLYCOGEN NANOPARTICLES AND A FURTHER POLYSACCHARIDE” (MIREXUS BIOTECHNOLOGIES INC., priority 2016, published 2019)
# Test: Photostability of phytoglycogen-ethyl-4-aminocinnamate conjugate versus aminocinnamate
# Format: physicochemical
# Conditions: after 4 h of exposure to UV-irradiation, thin film
# Description: Aminocinnamate and a phytoglycogen-ethyl-4-aminocinnamate conjugate were dissolved in ethanol or in water, respectively.
# Solutions were deposited as thin films onto a quartz plate and dried in air for 30 min. After drying, the samples were irradiated with UV light, as in Example 11, for 4 h and then tested for their photostability.
# Photodegradation was calculated from the decrease in the maximum absorption of the respective products.
smiles,measurement,value
"CCOC(=O)C=Cc1ccc(N)cc1 [aminocinnamate, ethyl 4-aminocinnamate]",activity retained,40%
